Experimental data published in US7964531B2, “3-phenoxy-4-pyridazinol derivatives and herbicidal composition containing the same” (Mitsui Chemicals Agro, Inc., priority 2001, dated 2011).

Legend:
Type in all cases: in vivo
Conditions in all cases: wettable powder applied 3 days after transplanting, judged after 25 days
Cyperus serotinus = experiment: Test Example 1: herbicidal effects, paddy-field pot test
Method in brief: (§1)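 Paddy soil pots sown with dormancy-broken weed seeds mixed into the top 1 cm, plus germinated Cyperus serotinus tubers and transplanted 2.2-leaf rice seedlings, grown flooded in a greenhouse. Water-diluted wettable powder applied 3 days after transplanting; growth inhibition scored 25 days later on a 0–5 scale (0 = 0–10%, 5 = 91–100%).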

Scirpus joncoides = experiment: as above
Method in brief: as §1

[1] = tested on: annual broad-leaved weeds (Lindernia spp., Rotala indica); experiment: as above
Method in brief: as §1

[2] = tested on: barnyardgrass (Echinochloa oryzicola Vasing.); experiment: as above
Method in brief: as §1

[3] = tested on: transplanted paddy-field rice; experiment: Test Example 1: crop injury against transplanted paddy-field rice
Method in brief: as §1

SMILES	Herbicidal effects Cyperus serotinus (Cyperus serotinus; chemical dosage 10 g/a)	Herbicidal effects Cyperus serotinus (Cyperus serotinus; chemical dosage 20 g/a)	Herbicidal effects Scirpus joncoides (Scirpus joncoides; chemical dosage 10 g/a)	Herbicidal effects Scirpus joncoides (Scirpus joncoides; chemical dosage 20 g/a)	Herbicidal effects Broad leaf ([1]; chemical dosage 10 g/a)	Herbicidal effects Broad leaf ([1]; chemical dosage 20 g/a)	Herbicidal effects Barnyard grass ([2]; chemical dosage 10 g/a)	Herbicidal effects Barnyard grass ([2]; chemical dosage 20 g/a)	Crop injury against transplanted rice ([3]; chemical dosage 10 g/a)	Crop injury against transplanted rice ([3]; chemical dosage 20 g/a)
Cc1ccccc1Oc1nnc(Cl)cc1OC(=O)OCC(Cl)(Cl)Cl [Example 349]	5 (Growth inhibition rate; 91 to 100%)	5 (Growth inhibition rate; 91 to 100%)	4 (Growth inhibition rate; 71 to 90%)	5 (Growth inhibition rate; 91 to 100%)	4 (Growth inhibition rate; 71 to 90%)	5 (Growth inhibition rate; 91 to 100%)	3 (Growth inhibition rate; 51 to 70%)	4 (Growth inhibition rate; 71 to 90%)	0 (Growth inhibition rate; 0 to 10%)	0 (Growth inhibition rate; 0 to 10%)
Cc1ccccc1Oc1nnc(Cl)cc1OS(C)(=O)=O [Example 356]	5 (Growth inhibition rate; 91 to 100%)	5 (Growth inhibition rate; 91 to 100%)	3 (Growth inhibition rate; 51 to 70%)	5 (Growth inhibition rate; 91 to 100%)	4 (Growth inhibition rate; 71 to 90%)	5 (Growth inhibition rate; 91 to 100%)	2 (Growth inhibition rate; 31 to 50%)	3 (Growth inhibition rate; 51 to 70%)	0 (Growth inhibition rate; 0 to 10%)	0 (Growth inhibition rate; 0 to 10%)
CS(=O)(=O)Oc1cc(Cl)nnc1Oc1ccccc1C1CC1 [Example 357]	5 (Growth inhibition rate; 91 to 100%)	5 (Growth inhibition rate; 91 to 100%)	5 (Growth inhibition rate; 91 to 100%)	5 (Growth inhibition rate; 91 to 100%)	5 (Growth inhibition rate; 91 to 100%)	5 (Growth inhibition rate; 91 to 100%)	2 (Growth inhibition rate; 31 to 50%)	3 (Growth inhibition rate; 51 to 70%)	0 (Growth inhibition rate; 0 to 10%)	0 (Growth inhibition rate; 0 to 10%)
CCCS(=O)(=O)Oc1cc(Cl)nnc1Oc1ccccc1C [Example 359]	5 (Growth inhibition rate; 91 to 100%)	5 (Growth inhibition rate; 91 to 100%)	3 (Growth inhibition rate; 51 to 70%)	4 (Growth inhibition rate; 71 to 90%)	3 (Growth inhibition rate; 51 to 70%)	5 (Growth inhibition rate; 91 to 100%)	4 (Growth inhibition rate; 71 to 90%)	5 (Growth inhibition rate; 91 to 100%)	0 (Growth inhibition rate; 0 to 10%)	0 (Growth inhibition rate; 0 to 10%)
